Measured values taken from patent publication US9556237B2 (priority 2012, dated 2017).
Peptide text beside a SMILES is read from it.

Test system: Vero E6 cells

## CSCC[C@H](N)C(=O)N[C@@H](Cc1ccccc1)C(=O)N[C@@H](CC(C)C)C(=O)NCC(=O)N[C@@H](Cc1c[nH]c2ccccc12)C(=O)N[C@@H](CO)C(=O)N[C@@H](Cc1ccccc1)C(=O)N[C@@H](CC(=O)O)C(=O)N[C@@H](Cc1ccccc1)C(=O)NCC(=O)N[C@@H](CO)C(=O)N[C@@H](CC(C)C)C(=O)N[C@@H](Cc1c[nH]c2ccccc12)C(=O)NCC(=O)N[C@@H](CC(N)=O)C(=O)N[C@@H](CCCCN)C(=O)N1CCC[C@H]1C(=O)N[C@@H](Cc1c[nH]c2ccccc12)C(=O)N[C@@H](Cc1ccccc1)C(=O)O [RVFV-6sc, MFLGWSFDFGSLWGNKPWF, reference compound] (H-MFLGWSFDFGSLWGNKPWF-OH)
  impact on cell proliferation (MTT assay): little negative impact on cell proliferation
